Laboratory results: ChEMBL document CHEMBL1124623, “2,4-Diamino-5-benzylpyrimidines and analogues as antibacterial agents. 12. 1,2-Dihydroquinolylmethyl analogues with high activity and specificity for bacterial dihydrofolate reductase” (J Med Chem, 1989)
Values after ≈ are worked out from the molar mass of the structure shown.

How the values were obtained:
[1] = Dissociation constant of compound at 20 degree C; type: physicochemical
Dihydrofolate reductase [2] = biological target: T1, Dihydrofolate reductase (Rattus norvegicus, UniProt Q920D2)
T1 sequence (Q920D2 whole entry): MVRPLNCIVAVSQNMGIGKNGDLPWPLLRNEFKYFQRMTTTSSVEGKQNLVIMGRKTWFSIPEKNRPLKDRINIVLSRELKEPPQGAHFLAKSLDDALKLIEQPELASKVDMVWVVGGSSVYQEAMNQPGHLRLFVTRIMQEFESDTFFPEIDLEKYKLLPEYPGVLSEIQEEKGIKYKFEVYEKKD
Description: Inhibitory activity against Dihydrofolate reductase in rat liver

Escherichia coli [3] = assay: Comparative in vitro antibacterial activity of compound with trimethoprim against Escherichia coli CN314; type: functional
Vibrio cholerae = assay: Comparative in vitro antibacterial activity of compound with trimethoprim against Vibrio cholerae ATCC 14035; type: functional
Klebsiella aerogenes [4] = assay: Comparative in vitro antibacterial activity of compound with trimethoprim against Enterobacter aerogenes 2200/86; type: functional
Streptococcus agalactiae [5] = assay: Comparative in vitro antibacterial activity of compound with trimethoprim against Streptococcus agalactiae CN1143; type: functional
Staphylococcus aureus = assay: Comparative in vitro antibacterial activity of compound with trimethoprim against Staphylococcus aureus CN491; type: functional
Enterococcus faecalis = assay: Comparative in vitro antibacterial activity of compound with trimethoprim against Streptococcus faecalis CN478; type: functional
Shigella flexneri [6] = assay: Comparative in vitro antibacterial activity of compound with trimethoprim against Shigella flexneri CN6007; type: functional
Proteus vulgaris [7] = assay: Comparative in vitro antibacterial activity of compound with trimethoprim against Proteus vulgaris CN329; type: functional
Salmonella typhimurium [8] = assay: Comparative in vitro antibacterial activity of compound with trimethoprim against Salmonella Typhimurium S 8587; type: functional, Salmonella enterica subsp. enterica serovar Typhimurium; details: Salmonella enterica
Streptococcus pyogenes [9] = assay: Comparative in vitro antibacterial activity of compound with trimethoprim against Streptococcus pyogenes CN10; type: functional
[10] = Comparative in vitro antibacterial activity of compound with trimethoprim against Salmonella typhi CN512; type: functional, salmonella typhosa
Klebsiella pneumoniae [11] = assay: Comparative in vitro antibacterial activity of compound with trimethoprim against Klebsiella pneumoniae CN3632; type: functional
Klebsiella aerogenes [12] = assay: Comparative in vitro antibacterial activity of compound with trimethoprim against Enterobacter aerogenes 2200/86 on different day; type: functional
Streptococcus agalactiae [13] = assay: Comparative in vitro antibacterial activity of compound with trimethoprim against Streptococcus agalactiae CN1143 on different day; type: functional
Salmonella typhimurium [14] = assay: Comparative in vitro antibacterial activity of compound with trimethoprim against Salmonella Typhimurium S 8587 on different day; type: functional, Salmonella enterica subsp. enterica serovar Typhimurium; details: Salmonella enterica
Klebsiella pneumoniae [15] = assay: Comparative in vitro antibacterial activity of compound with trimethoprim against Klebsiella pneumoniae CN3632 on different day; type: functional
Streptococcus pyogenes [16] = assay: Comparative in vitro antibacterial activity of compound with trimethoprim against Streptococcus pyogenes CN10 on different day; type: functional
Shigella flexneri [17] = assay: Comparative in vitro antibacterial activity of compound with trimethoprim against Shigella flexneri CN6007 on different day; type: functional
Escherichia coli [18] = assay: Comparative in vitro antibacterial activity of compound with trimethoprim against Escherichia coli CN314 on different day; type: functional
Dihydrofolate reductase [19] = biological target: T2, Dihydrofolate reductase (Escherichia coli, UniProt P0ABQ4)
T2 sequence (P0ABQ4 whole entry): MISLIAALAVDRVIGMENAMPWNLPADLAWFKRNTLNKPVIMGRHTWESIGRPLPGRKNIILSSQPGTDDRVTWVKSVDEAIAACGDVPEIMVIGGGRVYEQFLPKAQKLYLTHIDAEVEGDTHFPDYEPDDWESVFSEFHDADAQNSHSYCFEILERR
Description: Apparent binding affinity of compound in Escherichia coli DHFR

Proteus vulgaris [20] = assay: Comparative in vitro antibacterial activity of compound with trimethoprim against Proteus vulgaris CN329 on different day; type: functional
[21] = Comparative in vitro antibacterial activity of compound with trimethoprim against Salmonella typhi CN512 on different day; type: functional, salmonella typhosa
Dihydrofolate reductase [22] = biological target: T3, Dihydrofolate reductase (Gallus gallus, UniProt P00378); assay: Inhibitory activity against Dihydrofolate reductase in chicken; details: read-out: I50
T3 sequence (P00378 whole entry): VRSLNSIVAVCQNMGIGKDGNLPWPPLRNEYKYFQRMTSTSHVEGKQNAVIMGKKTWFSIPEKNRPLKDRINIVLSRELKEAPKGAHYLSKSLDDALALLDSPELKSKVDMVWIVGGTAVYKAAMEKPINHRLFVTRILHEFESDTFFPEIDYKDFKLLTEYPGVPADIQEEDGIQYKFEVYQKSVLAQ

Compound | IC50 (Dihydrofolate reductase [2]) | MIC (Escherichia coli [3]) | MIC (Vibrio cholerae) | MIC (Klebsiella aerogenes [4]) | MIC (Streptococcus agalactiae [5]) | MIC (Staphylococcus aureus) | MIC (Enterococcus faecalis) | MIC (Shigella flexneri [6]) | MIC (Proteus vulgaris [7]) | MIC (Salmonella typhimurium [8]) | MIC (Streptococcus pyogenes [9]) | MIC [10] | further results
CN1CCCc2ccccc21 |  |  |  |  |  |  |  |  |  |  |  |  | pKa [1]: 4.1
COc1cccc2c1N(C)C(C)(C)C=C2C |  |  |  |  |  |  |  |  |  |  |  |  | pKa [1]: 6.82
COc1cc(Cc2cnc(N)nc2N)cc2c1N(C)C(C)(C)C=C2C | 340 µM |  |  |  |  |  |  |  |  |  |  |  | 
COc1cc(Cc2cnc(N)nc2N)cc2c(C)ccnc12 | 20 µM |  |  |  |  |  |  |  |  |  |  |  | 
COc1cc(Cc2cnc(N)nc2N)cc2c1NC(C)(C)CC2C (centres undefined) | 430 µM | 30 µg/mL (≈ 91.6 µM) | 3 µg/mL (≈ 9.16 µM) | 10 µg/mL (≈ 30.5 µM) | 1 µg/mL (≈ 3.05 µM) | 3 µg/mL (≈ 9.16 µM) | 1 µg/mL (≈ 3.05 µM) | 30 µg/mL (≈ 91.6 µM) | > 100 µg/mL | 30 µg/mL (≈ 91.6 µM) | 1 µg/mL (≈ 3.05 µM) | 100 µg/mL (≈ 305 µM) | 
COc1cccc2c1NC(C)(C)C=C2C |  |  |  |  |  |  |  |  |  |  |  |  | pKa [1]: 3.36
COc1cc(Cc2cnc(N)nc2N)cc2c1NC(C)(CF)C=C2CF (centres undefined) | 230 µM | 10 µg/mL (≈ 27.7 µM) | 3 µg/mL (≈ 8.3 µM) | 30 µg/mL (≈ 83 µM) | 0.3 µg/mL (≈ 0.83 µM) | 0.3 µg/mL (≈ 0.83 µM) | 0.3 µg/mL (≈ 0.83 µM) | 10 µg/mL (≈ 27.7 µM) | 10 µg/mL (≈ 27.7 µM) | 3 µg/mL (≈ 8.3 µM) | 0.1 µg/mL (≈ 0.277 µM) | 10 µg/mL (≈ 27.7 µM) | MIC (Klebsiella pneumoniae [11]): 10 µg/mL (≈ 27.7 µM)
CC1=CC(C)(C)Nc2c1cc(Cc1cnc(N)nc1N)cc2[S+](C)[O-] (centres undefined) | 56 µM |  |  |  |  |  |  |  |  |  |  |  | 
CC1=CC(C)(C)Nc2ccc(Cc3cnc(N)nc3N)cc21 | 240 µM |  |  |  |  |  |  |  |  |  |  |  | 
COc1cc(Cc2cnc(N)nc2N)cc2c1NC(C)(CF)C(F)=C2C (centres undefined) | 233 µM | 1 µg/mL (≈ 2.77 µM) | 3 µg/mL (≈ 8.3 µM) | 1 µg/mL (≈ 2.77 µM) | 0.1 µg/mL (≈ 0.277 µM) | 0.001 µg/mL (≈ 0.00277 µM) | 0.0001 µg/mL (≈ 0.000277 µM) | 3 µg/mL (≈ 8.3 µM) | 3 µg/mL (≈ 8.3 µM) | 3 µg/mL (≈ 8.3 µM) | 0.03 µg/mL (≈ 0.083 µM) | 1 µg/mL (≈ 2.77 µM) | MIC (Klebsiella aerogenes [12]): 10 µg/mL (≈ 27.7 µM); MIC (Streptococcus agalactiae [13]): 0.03 µg/mL (≈ 0.083 µM); MIC (Klebsiella pneumoniae [11]): 10 µg/mL (≈ 27.7 µM); MIC (Salmonella typhimurium [14]): 3 µg/mL (≈ 8.3 µM); MIC (Klebsiella pneumoniae [15]): 1 µg/mL (≈ 2.77 µM); MIC (Streptococcus pyogenes [16]): 0.1 ng/mL (≈ 0.000277 µM); MIC (Shigella flexneri [17]): 0.3 µg/mL (≈ 0.83 µM); MIC (Escherichia coli [18]): 10 µg/mL (≈ 27.7 µM); Ki (Dihydrofolate reductase [19]): 0.1 nM; MIC (Proteus vulgaris [20]): 3 µg/mL (≈ 8.3 µM); MIC [21]: 30 µg/mL (≈ 83 µM)
COc1cc(Cc2cnc(N)nc2N)cc2c1NC(C)(C)C=C2C | 300 µM | 3 µg/mL (≈ 9.22 µM) | 3 µg/mL (≈ 9.22 µM) | 3 µg/mL (≈ 9.22 µM) | 0.3 µg/mL (≈ 0.922 µM) | 0.3 µg/mL (≈ 0.922 µM) | 0.1 µg/mL (≈ 0.307 µM) | 3 µg/mL (≈ 9.22 µM) | 3 µg/mL (≈ 9.22 µM) | 10 µg/mL (≈ 30.7 µM) | 0.1 µg/mL (≈ 0.307 µM) | 10 µg/mL (≈ 30.7 µM) | MIC (Klebsiella pneumoniae [11]): 10 µg/mL (≈ 30.7 µM); IC50 (Dihydrofolate reductase [22]): 1300 nM
